{"source": "paper PMC8703466", "about": "“Unravelling the Interaction of Piperlongumine with the Nucleotide-Binding Domain of HSP70: A Spectroscopic and In Silico Study” (Pharmaceuticals, 2021)", "target": "T1, nucleotide-binding domain of heat shock protein 70 (NBD/HSP70) (Homo sapiens, UniProt P0DMV8)", "T1 construct": "gene HSPA1A", "T1 sequence (P0DMV8 1-382 limits assumed)": "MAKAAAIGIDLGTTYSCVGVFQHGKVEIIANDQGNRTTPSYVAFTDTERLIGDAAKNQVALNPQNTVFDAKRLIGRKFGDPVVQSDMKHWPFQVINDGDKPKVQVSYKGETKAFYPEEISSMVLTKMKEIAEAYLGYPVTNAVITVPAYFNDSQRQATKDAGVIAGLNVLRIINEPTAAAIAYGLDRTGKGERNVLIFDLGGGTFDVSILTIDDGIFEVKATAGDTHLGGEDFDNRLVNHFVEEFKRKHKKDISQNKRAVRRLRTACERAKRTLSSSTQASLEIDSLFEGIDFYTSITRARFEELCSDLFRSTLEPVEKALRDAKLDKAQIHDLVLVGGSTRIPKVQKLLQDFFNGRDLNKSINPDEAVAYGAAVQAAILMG", "experiment": "intrinsic Trp90 fluorescence quenching titration (steady-state, IDF/Hill fit), supported by time-resolved fluorescence; CD", "conditions": "read-out: intrinsic Trp90 fluorescence quenching titration (steady-state, IDF/Hill fit), s"}
{"smiles": "COc1cc(/C=C/C(=O)N2CCC=CC2=O)cc(OC)c1OC", "note": "[PPL, Piperlongumine]", "values": [{"measurement": "Kd", "result": 15.9, "unit": "µM"}]}
